According to patent publication US6001880A, “Alkylenediamine derivative, anti-ulcer drug, and antibacterial drug” (Shiseido Co., Ltd., priority 1997, dated 1999):

Columns and labels:
[1] = test system: Helicobacter pyroli (HP NCTC 11637); assay: AHP: Antibacterial Activity Test Against Helicobacter pyroli (agar dilution); assay type: cell-based, Helicobacter pyroli NCTC 11637
Experimental: AHP: Antibacterial Activity Test Against Helicobacter pyroli The minimum inhibitory concentration (MIC) against Helicobacter pyroli (microacrophilic gram-negative bacterium which is supposed to deeply involve in pathogenesis, relapse, and recrudescence of ulcer, referred to as "HP" in the following) is measured so as to find out compounds which have antibacterial activity against Helicobacter pyroli. MICs were determined by the agar dilution method. The stock culture (-80° C.) of HP NCTC 11637 was thawed and cultured on tripticase soy agar supplemented with 5% sheep blood at 37° C. in an atmosphere of 5% O2, 10% CO2, and 85% N2. Grown colonies were transferred to the same plate and precultured for 3 days under the same condition. […] An appropriate amount of the colony grown on the plate by preculturing was suspended in Mueller Hinton broth till turbidness was recognizable by naked eyes, thereby yielding a bacterial suspension concentrate containing about 10^7 cfu/ml. […] 10 μl of the bacterial suspension for inoculation (about 10^3 cfu) was dropped by dispenser onto an MIC plate for inoculation and cultured for 7 days under the same condition as that of preculture. Thereafter, it was judged whether there had been bacteria growth or not. […] As the result of the comparison of these plates, when the number of the colony on the plate containing the sample compound was less than 90% with respect to that on the control plate, it was represented by "+". Contrary to this, when there was 90% or more, it was represented by "-".

[2] = MTT: Cell Damaging and Protecting Effect Test; assay type: cell-based, rabbit (male Japanese White); details: rabbit, gastric corpus mucosa cells, final concentration 10^-4 M, smaller value is better, read-out: MTT: cell damaging rate
Outline: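 Primary gastric corpus mucosal cells from male Japanese White rabbit, enzymatically dispersed and cultured 3 days to confluence. Compound at final 10^-4 M added with MTT for 4 h at 37 °C; formazan read at OD 570–630. Cell damaging rate (%) calculated against control absorbance.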

[3] = test system: stress ulcer formation in rats; assay: WIS: Restraint and Water Immersion Stress-Induced Ulcer Inhibition Test; assay type: in vivo, rat (male Crj:SD or Slc:SD); details: 100 mg/kg oral, 10 minutes before 7 h restraint and water immersion (21° C.)
Outline: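 Overnight-fasted male SD rats (6–7 weeks, n=5–8) dosed orally at 100 mg/kg in 0.3% CMC-Na or 0.05% Tween 80; 10 min later restrained and immersed to xiphoid in 21° C water for 7 h. Ulcer index is summed glandular erosion length; inhibition % = (1 − UI sample/UI control).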

| SMILES | MIC ([1]; Helicobacter, NCTC11637, 168 h, agar dilution, HP NCTC 11637, 7 days) | cytotoxicity at 4 h, 100 µM [2] | WIS: ulcer formation inhibitory rate [3] | AHP: growth class where MIC was 100 μg/ml or more ([1]; MIC 100 μg/ml or more, colony number vs control plate, 250 mM solution of sample compound) |
| --- | --- | --- | --- | --- |
| CC(C)=CCC/C(C)=C/COc1ccc(OC/C=C(\C)CCC=C(C)C)c(C(=O)NCCN(C(C)C)C(C)C)c1 [Example 17] | < 3.13 µg/mL | 27% | 62% |  |
| CCN(CC)CCNC(=O)c1cc(OC/C=C(\C)CCC=C(C)C)ccc1OC/C=C(\C)CCC=C(C)C [Example 16] |  | 40% | 82% |  |
| COc1cc(C(=O)NCCN(C)C)cc(OC/C=C(\C)CCC=C(C)C)c1OC [Example 42] |  | 17% | 81% |  |
| CCN(CC)CCNC(=O)c1cc(OC)c(OC/C=C(/C)CCC=C(C)C)c(OC)c1 [Example 38] |  | 30% | 86% |  |
| CCN(CC)CCNC(=O)c1cc(OC)c(OC/C=C(\C)CCC=C(C)C)c(OC)c1 [Example 37] |  | 39% | 69% |  |
| CCN(CC=C(C)C)c1ccc(C(=O)NCCN(C(C)C)C(C)C)cc1 [Example 28] |  | 16% | 87% | + (the number of the colony on the plate containing the sample compound was less than 90% with respect to that on the control plate) |
| CCN(CC)CCNC(=O)c1cc(OCC=C(C)C)cc(OCC=C(C)C)c1 [Example 14] |  | 43% | 86% |  |
